Laboratory results as given in patent publication US20250011881A1, “MYC-HSF1 DUAL AMPLIFICATION AS A BIOMARKER FOR CANCER TREATMENT” (The Trustees of Indiana University, priority 2023, published 2025).
Several values for one entry are separate records, joined by “and”; a condition that tells them apart may be missing. Equal values may be shown once. Where a name gives a salt, the structure may show the parent alone. Read-outs that look alike come from different tables or passages of the source.

System: ovarian cancer cells with (OVCAR8, OVCAR4) or without (OVSAHO, CAOV3) MYC-HSF1 amplification
Experiment: Epigenetic inhibitor drug screen, cell viability (Cell Titer Blue)
Format: cell-based
[1] = 10 uM, 48 hrs, average relative cell viability (vs 1% DMSO) of non-amplified cells (OVSAHO, CAOV3) minus that of MYC-HSF1 amplified cells (OVCAR8, OVCAR4), positive = greater response in amplified cells, 10 µM
[2] = 10 uM, 48 hrs, average relative cell viability (vs 1% DMSO) of non-amplified cells (OVSAHO, CAOV3) minus that of MYC-HSF1 amplified cells (OVCAR8, OVCAR4), positive = greater response in amplified cells

Compound | Non Amp - AMP (POC) 10 uM [2] | also measured
Cc1[nH]c2ccccc2c1CCNCc1ccc(/C=C/C(=O)NO)cc1 [Panobinostat] | – | Non Amp - AMP (POC) 10 uM [1]: 41.46 POC; Non Amp - AMP (POC) 10 uM (10 uM, 48 hrs, average relative cell viability (vs 1% DMSO) of non-amplified cells (OVSAHO, CAOV3) minus that of MYC-HSF1 amplified cells (OVCAR8, OVCAR4), positive = greater response in amplified cells, listed as Panobinostat (LBH589), 10 µM): 27.26 POC
[H]/N=C(/N)N/C(=N/[H])NCCc1ccccc1 [Phenformin HCl] | 7.32 POC | –
NC(=O)c1ccccn1 [Picolinamide] | 20.35 POC | –
COc1cccc2c1C(=O)c1c(O)c3c(c(O)c1C2=O)C[C@@](O)(C(=O)CO)C[C@@H]3O[C@H]1C[C@H](N)[C@H](O[C@@H]2CCCCO2)[C@H](C)O1 [Pirarubicin] | 6.408 POC | –
CC1=CC(=O)c2c(O)cccc2C1=O [Plumbagin] | 4.102 POC | –
CCN(CC)CCNC(=O)c1ccc(N)cc1 [Procainamide HCl] | 4.095 POC | –
CNNCc1ccc(C(=O)NC(C)C)cc1 [Procarbazine HCl] | 1.149 POC | –
CC(C)(C)c1nc2c3cc[nH]c(=O)c3c3cc(F)ccc3c2[nH]1 [Pyridone 6] | – | Non Amp - AMP (POC) 10 uM: −0.4008 POC
O=C(CCCCCCC(=O)Nc1cccnc1)NO [Pyroxamide] | 60.34 POC | –
O=C(O)C(Cc1c[nH]c2ccccc12)N1C(=O)c2ccccc2C1=O (stereo not shown) [RG108] | – | Non Amp - AMP (POC) 10 uM [1]: 17.36 POC; Non Amp - AMP (POC) 10 uM (10 uM, 48 hrs, average relative cell viability (vs 1% DMSO) of non-amplified cells (OVSAHO, CAOV3) minus that of MYC-HSF1 amplified cells (OVCAR8, OVCAR4), positive = greater response in amplified cells, listed as RG 108, 10 µM): −2.615 POC
CN1CCN(C(=O)CN[C@H]2C[C@@H]2c2ccc(OCc3ccccc3)cc2)CC1.Cl.Cl [RN-1 (hydrochloride)] | −2.198 POC | –
NC(=O)c1cccc(NC(=O)/C=C/c2c[nH]c3ccccc23)c1 [RSC-133] | 26.08 POC | –
COc1cc(OC)c2c(=O)[nH]c(-c3cc(C)c(OCCO)c(C)c3)nc2c1 [RVX-208] | – | Non Amp - AMP (POC) 10 uM [1]: 12.33 POC and 7.058 POC
C[C@@H]1O[C@@H](O[C@H]2[C@H](O[C@H]3[C@H](O[C@H]4CC[C@]5(C)[C@H]6CC=C7[C@@H]8CC(C)(C)CC[C@]8(C(=O)O)CC[C@@]7(C)[C@]6(C)CC[C@H]5C4(C)C)OC[C@H](O)[C@@H]3O)O[C@H](CO)[C@@H](O)[C@@H]2O)[C@H](O)[C@H](O)[C@H]1O [Raddeanin A] | 2.609 POC | –
N#Cc1ccc(-c2csc(NN=C3CCCC3)n2)cc1 [Remodelin] | 13.34 POC | –
CN(C)Cc1ccc(S(=O)(=O)n2ccc(/C=C/C(=O)NO)c2)cc1 [Resminostat (hydrochloride), Resminostat] | 36.33 POC | –
Oc1ccc(C=Cc2cc(O)cc(O)c2)cc1 [Resveratrol] | 0.9482 POC | –
c1nc2nc(Nc3ccc(N4CCOCC4)cc3)nc(NC3CCCCC3)c2[nH]1 [Reversine] | −6.769 POC | –
CS(=O)(=O)O.Cn1cc(C2=C(c3cn(CCCSC(=N)N)c4ccccc34)C(=O)NC2=O)c2ccccc21 [Ro 31-8220 Mesylate] | 3.048 POC | –
O=C(CCCCCCNC(=O)c1cnc(N(c2ccccc2)c2ccccc2)nc1)NO [Rocilinostat (ACY-1215), Rocilinostat] | 32.23 POC | –
C/C=C1\NC(=O)[C@H]2CSSCC/C=C/[C@H](CC(=O)N[C@H](C(C)C)C(=O)N2)OC(=O)[C@H](C(C)C)NC1=O [Romidepsin (FK229, depsipeptide), Romidepsin] | – | Non Amp - AMP (POC) 10 uM: 4.459 POC

Compound | Non Amp - AMP (POC) 10 uM [2] | also measured
CNCc1ccc(-c2[nH]c3cc(F)cc4c3c2CCNC4=O)cc1 [Rucaparib (AG-014699, PF-01367338), Rucaparib] | – | Non Amp - AMP (POC) 10 uM [1]: 0.4948 POC
CNCc1ccc(-c2[nH]c3cc(F)cc4c3c2CCNC4=O)cc1 [Rucaparib (free base), Rucaparib] | – | Non Amp - AMP (POC) 10 uM [1]: 8.811 POC
N#CC[C@H](C1CCCC1)n1cc(-c2ncnc3[nH]ccc23)cn1 [Ruxolitinib (INCB018424), Ruxolitinib] | – | Non Amp - AMP (POC) 10 uM [1]: −4.311 POC
N#CC[C@H](C1CCCC1)n1cc(-c2ncnc3[nH]ccc23)cn1 [Ruxolitinib phosphate] | – | Non Amp - AMP (POC) 10 uM [1]: 2.659 POC
CCCCc1nc2cc(/C=C/C(=O)NO)ccc2n1CCN(CC)CC [SB939, Pracinostat] | – | Non Amp - AMP (POC) 10 uM [1]: 42.19 POC; Non Amp - AMP (POC) 10 uM (10 uM, 48 hrs, average relative cell viability (vs 1% DMSO) of non-amplified cells (OVSAHO, CAOV3) minus that of MYC-HSF1 amplified cells (OVCAR8, OVCAR4), positive = greater response in amplified cells, listed as Pracinostat (SB939), 10 µM): 22.93 POC
CN1C/C=C/CCOc2cccc(c2)-c2ccnc(n2)Nc2cccc(c2)C1 [SB1317] | 5.059 POC | –
O=C(CCCCCCC(=O)NO)NO [SBHA] | – | Non Amp - AMP (POC) 10 uM: 0.3146 POC
O=C(NCC(=O)N1CCCC1)Nc1ccc2cnccc2c1 [SGC707] | – | Non Amp - AMP (POC) 10 uM: 4.518 POC
CC(C)N(CCCNC(=O)Nc1ccc(C(C)(C)C)cc1)C[C@H]1O[C@@H](n2cc(Br)c3c(N)ncnc32)[C@H](O)[C@@H]1O [SGC 0946] | 1.268 POC | –
CN1CCC(CNc2ccc3ncc(-c4cccc(OC(F)(F)F)c4)n3n2)CC1 [SGI-1776 free base] | −17.37 POC | –
O=c1[nH]c(=S)[nH]c(-c2ccccc2)c1Cc1c(O)ccc2ccccc12 [SIRT 1/2 Inhibitor IV] | 18.95 POC | –
O=C1NC(=O)/C(=C/c2cccc(C(F)(F)F)c2)S1 [SMI-4a] | −1.184 POC | –
Cl.O=C(Nc1ccccc1-c1cn2c(CN3CCNCC3)csc2n1)c1cnc2ccccc2n1 [SRT1720 HCl] | 4.809 POC | –
Cc1nc(-c2cccnc2)sc1C(=O)Nc1ccccc1-c1cn2c(CN3CCOCC3)csc2n1 [SRT2104 (GSK2245840)] | −1.9 POC | –
O=C(/C=C/c1ccccc1)NC(NC(=S)Nc1ccc(Cl)cc1)C(Cl)(Cl)Cl (stereo not shown) [Sal 003] | −16.28 POC | –
CC(C(=O)Nc1cccc(/N=C/c2c(O)ccc3ccccc23)c1)c1ccccc1 (stereo not shown) [Salermide] | −13.88 POC | –
O=C(/C=C/c1ccc(O)c2c1[C@H](C(=O)O[C@H](Cc1ccc(O)c(O)c1)C(=O)O)[C@@H](c1ccc(O)c(O)c1)O2)O[C@H](Cc1ccc(O)c(O)c1)C(=O)O [Salvianolic acid B] | 2.345 POC | –
O=C(CCCCCN1C(=O)c2cccc3cccc(c23)C1=O)NO [Scriptaid] | – | Non Amp - AMP (POC) 10 uM [1]: 45.24 POC and 29.99 POC
Cc1cc(C)nc(SCC(=O)Nc2ncc(Cc3cccc4ccccc34)s2)n1 [SirReal2] | −3.472 POC | –
Nc1ncnc2c1ncn2[C@@H]1O[C@H](C[C@@H](N)CC[C@H](N)C(=O)O)[C@@H](O)[C@H]1O [Sirefungin] | 12.42 POC | –
O=C([O-])CCCc1ccccc1.[Na+] [Sodium 4-phenylbutyrate] | 6.103 POC | –

Compound | Non Amp - AMP (POC) 10 uM [2] | also measured
CCCC(=O)[O-].[Na+] [Sodium butyrate] | – | Non Amp - AMP (POC) 10 uM: −0.4466 POC
CN1CCN(c2nc(C3=C(c4c[nH]c5ccccc45)C(=O)NC3=O)c3ccccc3n2)CC1 [Sotrastaurin (AEB071), Sotrastaurin] | 10.63 POC | –
CN[C@@H]1C[C@H]2O[C@@](C)([C@@H]1OC)n1c3ccccc3c3c4c(c5c6ccccc6n2c5c31)C(=O)NC4 [Staurosporine] | 7.23 POC | –
N#Cc1c(Oc2ccc(F)c(NC(=O)Cc3cccc(C(F)(F)F)c3)c2)ccc2nc(NC(=O)C3CC3)sc12 [TAK-632] | −12.18 POC | –
CCS(=O)(=O)c1cccc(-c2cc(C(=O)NC3CCN(C)CC3)c(C)c3[nH]c4ncc(C)cc4c23)c1 [TAK-901] | 3.351 POC | –
O=C(CCl)Nc1ccc(S(=O)(=O)c2ccc(NC(=O)CCl)cc2)cc1 [TC-E 5003] | 0.7453 POC | –
Cc1ccc(NC(=O)CCCCCC(=O)Nc2ccccc2N)cc1 [TC-H 106] | 8.223 POC | –
N#Cc1c(-c2ccccc2)cc(-c2cc(Br)ccc2O)[nH]c1=O [TCS PIM-1 1] | 0.7424 POC | –
Cc1cnc(Nc2ccc(N3CCN(C)CC3)cc2)nc1Nc1cccc(S(=O)(=O)NC(C)(C)C)c1 [TG101209] | 15.1 POC | –
Cc1cnc(Nc2ccc(OCCN3CCCC3)cc2)nc1Nc1cccc(S(=O)(=O)NC(C)(C)C)c1 [TG101348 (SAR302503)] | −1.346 POC | –
O=C(NCC1(c2nc(-c3ccccc3)cs2)CCOCC1)c1cccc(-c2noc(C(F)(F)F)n2)c1 [TMP269] | 16.29 POC | –
CC(C)(CNC(=O)c1cccc(-c2noc(C(F)(F)F)n2)c1)c1coc(-c2ccccc2)n1 [TMP-195] | 0.5425 POC | –
N#Cc1ccc(OC2CCC(NC(=O)CCSc3nc4ccccc4c(=O)[nH]3)CC2)cc1 (stereo not shown) [Tankyrase Inhibitors (TNKS) 49] | −7.406 POC | –
CN(C)CCCCC(=O)Nc1ccc(NC(=S)NC(=O)c2ccc(C(C)(C)C)cc2)cc1.Cl [Tenovin-6 (hydrochloride), Tenovin-6] | −3.503 POC | –
CN(C)CCCCC(=O)Nc1ccc(NC(=S)NC(=O)c2ccc(C(C)(C)C)cc2)cc1 [Tenovin-6] | 0.07933 POC | –
Nc1nc2nc[nH]c2c(=S)[nH]1 [Thioguanine] | – | Non Amp - AMP (POC) 10 uM [1]: 9.104 POC
CCCCCCCCCCCCCC(=S)NCCCC[C@H](NC(=O)OCc1ccccc1)C(=O)Nc1ccccc1 [Thiomyristoyl] | −0.8381 POC | –
CCOC(=O)NNc1nncc2ccccc12 [Todralazine (hydrochloride), Todralazine] | 13.07 POC | –
C[C@@H]1CCN(C(=O)CC#N)C[C@@H]1N(C)c1ncnc2[nH]ccc12 [Tofacitinib (CP-690550) Citrate, Tofacitinib] | – | Non Amp - AMP (POC) 10 uM [1]: 3.666 POC
